The values that follow come from PubChem BioAssay (NCI).

Several values for one entry are separate records, joined by “and”; a condition that tells them apart may be missing. Equal entries are not always repeated.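 Test compounds were applied to cells in 96-well plates for 48 hours at 5 doses. GI50 is the concentration that inhibits growth by half. TGI: concentration producing complete growth inhibition.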 Where only a bound is given, the exact number is not on record here.

Test systems include A549 NSCLC; HCT-116 colon; HT29 colon; MOLT-4 leukemia; RXF 393 renal; SF-295 CNS; SK-MEL-5 melanoma; SK-OV-3 ovarian; SW-620 colon; TK-10 renal; EKVX NSCLC.
Common to all, as to test: DTP human tumour cell line panel, 48 h

Turning to `Cc1ccc(S(=O)(=O)NCCSCCNS(=O)(=O)c2ccc(C)cc2)cc1`, the TGI in the experiment with A549 NSCLC, in the experiment with HCT-116 colon, with HT29 colon, with MOLT-4 leukemia, in the experiment with RXF 393 renal and in the experiment on SF-295 CNS was greater than 100 µM throughout. The TGI with SK-MEL-5 melanoma, in the experiment on SK-OV-3 ovarian, in the experiment on SW-620 colon and with TK-10 renal was greater than 100 µM in each case.
As for `Cc1ccc(Oc2ccc(C)cc2[N+](=O)[O-])cc1`, the TGI in the experiment with A549 NSCLC is greater than 100 µM; with EKVX NSCLC, greater than 100 µM; in the experiment on HCT-116 colon, greater than 100 µM; in the experiment on HT29 colon, greater than 100 µM; with MOLT-4 leukemia, greater than 100 µM; in the experiment on RXF 393 renal it was 92.7 µM. The TGI is greater than 100 µM in the experiment with SF-295 CNS; 92.6 µM in the experiment with SK-MEL-5 melanoma; greater than 100 µM with SK-OV-3 ovarian; greater than 100 µM in the experiment with SW-620 colon; greater than 100 µM in the experiment with TK-10 renal.
Regarding `O=S(=O)(Sc1ccc(Cl)cc1)c1ccc(Cl)cc1`, the TGI in the experiment on A549 NSCLC turned out to be 32.7 µM; with EKVX NSCLC it was 57.5 µM; in the experiment on HCT-116 colon it was 28.6 µM; in the experiment with HT29 colon, 35 µM; in the experiment on MOLT-4 leukemia, 44.5 µM; in the experiment with RXF 393 renal, 30.1 µM. Also, the TGI with SF-295 CNS was 27.2 µM; in the experiment with SK-MEL-5 melanoma it was 28.6 µM; with SK-OV-3 ovarian, 85.2 µM; in the experiment on SW-620 colon, 32.6 µM; in the experiment with TK-10 renal, 61.4 µM.
Consider `CCOC(=O)/C(Cl)=C(\C)Nc1nc2c(ccc3ccccc32)s1`, for which the TGI in the experiment on EKVX NSCLC, in the experiment with HCT-116 colon, in the experiment with HT29 colon, in the experiment on MOLT-4 leukemia, in the experiment with SF-295 CNS and with SK-MEL-5 melanoma was greater than 100 µM each time. Moreover, the total growth inhibition concentration (TGI) in the experiment on SK-OV-3 ovarian, in the experiment with SW-620 colon and with TK-10 renal was greater than 100 µM each time.
As to `Cc1cc(NCc2cc(Nc3ccnc4cc(Cl)ccc34)ccc2F)nc(N2CCCC2)n1`, the GI50 is 2.22 µM in the experiment on A549 NSCLC; 2.43 µM with EKVX NSCLC; 0.877 µM in the experiment with HT29 colon; 1.95 µM in the experiment with MOLT-4 leukemia; 1.45 µM in the experiment on RXF 393 renal; 1.76 µM in the experiment with SK-MEL-5 melanoma. The GI50 in the experiment on SK-OV-3 ovarian was 2.04 µM; in the experiment with SW-620 colon, 1.23 µM; with TK-10 renal, 1.94 µM. In addition, the TGI stood at 6.02 µM with A549 NSCLC; 11.1 µM in the experiment on EKVX NSCLC; 2.27 µM in the experiment with HT29 colon; 14.3 µM in the experiment with MOLT-4 leukemia; 2.99 µM in the experiment with RXF 393 renal; 3.19 µM in the experiment with SK-MEL-5 melanoma. Also, the figures for the TGI with SK-OV-3 ovarian, in the experiment with SW-620 colon and in the experiment with TK-10 renal were 5.09 µM, 2.95 µM and 3.61 µM, respectively.
As to `O=c1ccc2cc(O)c(O)cc2o1`, the TGI in the experiment on A549 NSCLC, with EKVX NSCLC, in the experiment with HCT-116 colon, in the experiment with HT29 colon, in the experiment with MOLT-4 leukemia and in the experiment with RXF 393 renal was greater than 100 µM throughout. For the same molecule, the total growth inhibition concentration (TGI) in the experiment with SF-295 CNS, in the experiment with SK-MEL-5 melanoma, in the experiment with SK-OV-3 ovarian, in the experiment with SW-620 colon and in the experiment with TK-10 renal was greater than 100 µM throughout.
Consider `COc1ccc(N2C(=O)C3c4[nH]c5c(C)cccc5c4C4CCC(C(C)(C)C)CC4C3C2=O)cc1` (stereo unspecified), for which the TGI in the experiment on A549 NSCLC was greater than 10 µM; in the experiment on EKVX NSCLC, greater than 10 µM; in the experiment with HCT-116 colon it was greater than 10 µM; in the experiment with HT29 colon it was 5.86 µM; with MOLT-4 leukemia, greater than 10 µM; in the experiment on RXF 393 renal, greater than 10 µM. Besides, the TGI in the experiment with SF-295 CNS, with SK-MEL-5 melanoma, in the experiment with SK-OV-3 ovarian, in the experiment on SW-620 colon and with TK-10 renal was greater than 10 µM throughout.
Regarding `CN(C)CCNc1nc(-c2ccc3ccccc3c2)nc2nc[nH]c12`, the TGI came to 26.3 µM in the experiment on A549 NSCLC; 19.8 µM with EKVX NSCLC; 24.6 µM in the experiment on HCT-116 colon; 16.4 µM with HT29 colon; 18.6 µM with MOLT-4 leukemia; 24.2 µM in the experiment on RXF 393 renal. In addition, the TGI worked out at 26.9 µM in the experiment with SF-295 CNS; 25 µM in the experiment on SK-MEL-5 melanoma; 20.8 µM with SK-OV-3 ovarian; 24.6 µM in the experiment on SW-620 colon; 19.4 µM with TK-10 renal.
As for `CC(=O)C(O)N1C(=O)C=CC1=O` (stereo unspecified), the TGI in the experiment with A549 NSCLC is 16.4 µM and 35.9 µM; in the experiment on EKVX NSCLC, 25 µM and 33.5 µM and 12.3 µM. For the same molecule, the GI50 is 21.2 µM and 18.7 µM in the experiment with EKVX NSCLC; 13000 µM in the experiment on RXF 393 renal.
As for `CC12CCC(C(=O)OC1=O)C(C)(C)O2` (stereo unspecified), the TGI in the experiment on A549 NSCLC, in the experiment on EKVX NSCLC, in the experiment on HCT-116 colon, with HT29 colon, with MOLT-4 leukemia and in the experiment with RXF 393 renal was greater than 100 µM in each case. Moreover, the TGI in the experiment with SF-295 CNS, in the experiment on SK-MEL-5 melanoma, in the experiment with SK-OV-3 ovarian, with SW-620 colon and with TK-10 renal was greater than 100 µM each time.
Turning to `NC(=O)NN=C(CS)CS`, the TGI in the experiment on A549 NSCLC is 40.7 µM; in the experiment with EKVX NSCLC it was 33.7 µM; in the experiment on HCT-116 colon, greater than 100 µM; in the experiment on HT29 colon, greater than 100 µM; in the experiment with MOLT-4 leukemia it was 65.8 µM; in the experiment on RXF 393 renal, greater than 74.4 µM. Moreover, the TGI in the experiment on SF-295 CNS was 49.5 µM; in the experiment with SK-MEL-5 melanoma it was 32.8 µM; in the experiment on SK-OV-3 ovarian, greater than 100 µM; in the experiment on SW-620 colon, 60 µM.
Turning to `CN(C)c1ccc(/C=N\NC(=O)CSCC(=O)N/N=C/c2ccc(N(C)C)cc2)cc1`, the TGI was greater than 100 µM in the experiment with A549 NSCLC; greater than 100 µM in the experiment with EKVX NSCLC; greater than 100 µM in the experiment with HCT-116 colon; greater than 100 µM with HT29 colon; greater than 100 µM in the experiment on MOLT-4 leukemia; 81.5 µM in the experiment with RXF 393 renal. Further, the TGI in the experiment on SF-295 CNS, with SK-MEL-5 melanoma, with SK-OV-3 ovarian, in the experiment on SW-620 colon and in the experiment on TK-10 renal was greater than 100 µM throughout.
Take `COc1ccc([C@@H]2ON(C)[C@H]3CN(C)C(=O)[C@@H]23)cc1`: the TGI with A549 NSCLC, in the experiment with HCT-116 colon, in the experiment on HT29 colon, in the experiment on MOLT-4 leukemia, in the experiment on SF-295 CNS and in the experiment with SK-MEL-5 melanoma was greater than 100 µM in each case. For the same molecule, the TGI with SK-OV-3 ovarian, in the experiment on SW-620 colon and with TK-10 renal was greater than 100 µM throughout.
On to `CCCCCCCSc1nc2c(C(=O)OCC)ncn2c2ccccc12`, for which the TGI in the experiment on EKVX NSCLC, with HCT-116 colon, in the experiment on HT29 colon, in the experiment with MOLT-4 leukemia, with RXF 393 renal and in the experiment on SF-295 CNS was greater than 100 µM throughout. For the same molecule, the TGI in the experiment on SK-OV-3 ovarian, in the experiment with SW-620 colon and with TK-10 renal was greater than 100 µM each time.
